Measured values taken from US6610709B1, “2-n-substituted or unsubstituted-2-amino-5-methylpiperidine-3,4-diols and processes for the preparation thereof” (Zaidan Hojin Biseibutsu Kagaku Kenkyu Kai, priority 1999, dated 2003).

How the values were obtained:
[1] = target: T1, α-L-fucosidase (from bovine liver) (Bos taurus, UniProt Q2KIM0); assay: α-fucosidase-inhibitory activity assay (Test Example 1); assay type: biochemical; details: substrate p-nitrophenyl α-L-fucopyranoside, citrate-phosphate buffer pH 6.3, 37° C., 60 minutes, read-out: 50% Inhibiory Concentration (IC50) Enzyme A (converted)
T1 construct: a product of Sigma Company, originated from bovine liver; purchased Sigma; host or cells: bovine liver
T1 sequence (Q2KIM0 23-468): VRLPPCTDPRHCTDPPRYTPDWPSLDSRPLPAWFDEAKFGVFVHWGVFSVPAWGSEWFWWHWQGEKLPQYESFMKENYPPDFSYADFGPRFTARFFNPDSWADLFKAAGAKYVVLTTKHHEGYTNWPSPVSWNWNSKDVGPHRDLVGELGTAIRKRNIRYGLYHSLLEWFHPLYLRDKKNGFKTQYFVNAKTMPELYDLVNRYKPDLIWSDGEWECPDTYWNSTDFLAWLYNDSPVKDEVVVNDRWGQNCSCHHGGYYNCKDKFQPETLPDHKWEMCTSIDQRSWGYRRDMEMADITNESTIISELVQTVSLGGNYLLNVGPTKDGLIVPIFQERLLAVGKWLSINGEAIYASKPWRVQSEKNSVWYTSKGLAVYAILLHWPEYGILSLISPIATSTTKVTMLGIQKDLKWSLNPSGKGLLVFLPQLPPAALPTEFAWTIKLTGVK
Procedure: This Test Example is a test example for determining the α-fucosidase-inhibitory activity of the compound of the general formula (I) according to this invention.
Assay of the α-fucosidase-inhibitory activity was conducted according to a modification of the method described in the “Journal of Biological Chemistry”, 252, pp.5194-5200 (1977).
(§1) Thus, 0.5 mL of 0.025M citrate-phosphate buffer (pH 6.3), 0.1 mL of the same buffer containing 1.5 mM p-nitrophenyl α-L-fucopyranoside dissolved therein, and 0.1 mL of either water or an aqueous solution containing as the tested compound any one of the compounds of the formulae (Ia), (Ib), (Ic) and (Id) according to this invention were mixed with each other and pre-incubated in a 96-well titer plate at 37° C. for 10 minutes. After the completion of the pre-incubation, to the pre-incubated mixture was added 0.01 mL of 0.025M citrate-phosphate buffer containing α-L-fucosidase (a product of Sigma Company, originated from bovine liver) dissolved therein, and thereafter the enzymatic reaction was conducted at 37° C. for 60 minutes. After the enzymatic reaction, to the resulting reaction solution was added 1.0 mL of 0.2M glycine-sodium hydroxide buffer (pH 10.5), in order to terminate the enzymatic reaction. Thereafter, the absorbance (designated as “a”) of light at 405 nm of the resulting reaction solution was measured. Concurrently, measurement was made of the absorbance (designated as “b”) of light at 405 nm of the reaction solution as obtained in the control test where the enzymatic reaction was conducted without addition of the test compound. Further, measurements were made of the absorbance (designated as “a′”) and the absorbance (designated as “b′”) of light at 405 nm of the reaction solutions as obtained in the blank tests where the enzymatic reaction had not been conducted in the assay test, and also in the control test for the blank tests, respectively.
(§2) The rate of inhibition to α-L-fucosidase was calculated by the equation: […]

[2] = target: β-D-glucosidase (from almonds); assay: β-glucosidase-inhibitory activity assay (Test Example 2); assay type: biochemical, almond; details: substrate p-nitrophenyl β-D-glucoside, same manner as Test Example 1
Procedure: as §1, §2
This Test Example is a test example for determining the α-glucosidase or β-glucosidase-inhibitory activity of the compounds according to this invention.
The evaluation of the α- or β-glucosidase-inhibitory activity was conducted according to a modification of the method described in the “Agricultural and Biological Chemistry”, 26, p.203 (1962). Namely, the test was conducted in the same manner as the test for the enzyme-inhibitory activity described in Test Example 1, except that either α-glucosidase originated from yeast, or β-glucosidase originated from almond (both enzymes are products of Sigma Company) was used as the glycosidase enzyme, and that p-nitrophenyl α-D-glucoside or p-nitrophenyl β-D-glucoside was used as the substrate. Furthermore, the enzyme-inhibitory activity was measured in the same manner as in Test Example 1, and the 50% inhibitions of the tested compounds against the enzymes were calculated, respectively.

| SMILES | IC50 [1] [nM] | 50% Inhibiory Concentration (IC50) Enzyme C [2] [µg/mL] |
| --- | --- | --- |
| CC(=O)N[C@@H]1NC[C@@H](C)[C@@H](O)[C@H]1O [Compound of the Formula (Ia), (2S,3S,4R,5R)-2-acetamido-5-methylpiperidine-3,4-diol] | 584 | 2.3 |
| C[C@@H]1CN[C@@H](NC(=O)C(F)(F)F)[C@H](O)[C@@H]1O [Compound of the Formula (Ib), (2S,3S,4R,5R)-2-trifluoroacetamido-5-methyl-piperidine-3,4-diol] | 12.4 | 55 |
| C[C@@H]1CN[C@@H](NC(=O)C(Cl)(Cl)Cl)[C@H](O)[C@@H]1O [Compound of the Formula (Ic), (2S,3S,4R,5R)-2-trichloroacetamido-5-methyl-piperidine-3,4-diol] | 10.3 | 50 |
| C[C@@H]1CN[C@@H](N2C(=O)c3ccccc3C2=O)[C@H](O)[C@@H]1O [Compound of the Formula (Id), (2S,3S,4R,5R)-2-phthalimido-5-methylpiperidine-3,4-diol] | 14.5 | 60 |
| C[C@@H]1CN[C@@H](N)[C@H](O)[C@@H]1O [Compound of the Formula (Ie), (2R,3S,4R,5R)-2-amino-5-methylpiperidine-3,4-diol] | 20.5 | 50 |
